Results: PubChem BioAssay AID2060492 (Molecular Pharmacology Branch, DTP, NCI, 2025)

System: 695427-040-R-J1-PDC complex spheroids, viability percent T/C
Assay: Anticancer human tumor 695427-040-R-J1-PDC patient-derived colon adenocarcinoma cell line growth inhibition [GQUAD]
Details: for IC50: curve of first compound; for viability, T/C: stronger effect = lower value
Outline: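 Viability of tumor cells grown as complex spheroids with endothelial and stromal cells, exposed to drug combinations. Top concentration at or near clinical Cmax (else 10 microM), diluted in half-log increments.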

[1] = second compound 0.0316 µM, first compound 0.0316 µM
[2] = second compound 0.0316 µM, first compound 0.1 µM
[3] = second compound 0.0316 µM, first compound 0.316 µM
[4] = second compound 0.0316 µM, first compound 1 µM
[5] = second compound 0.0316 µM, first compound 3.16 µM
[6] = second compound 0.0316 µM, first compound 10 µM
[7] = second compound 0.1 µM, first compound 0.0316 µM
[8] = second compound 0.1 µM, first compound 0.1 µM
[9] = second compound 0.1 µM, first compound 0.316 µM
[10] = second compound 0.1 µM, first compound 1 µM
[11] = second compound 0.1 µM, first compound 3.16 µM
[12] = second compound 0.1 µM, first compound 10 µM
[13] = second compound 0.316 µM, first compound 0.0316 µM
[14] = second compound 0.316 µM, first compound 0.1 µM
[15] = second compound 0.316 µM, first compound 0.316 µM
[16] = second compound 0.316 µM, first compound 1 µM
[17] = second compound 0.316 µM, first compound 3.16 µM
[18] = second compound 0.316 µM, first compound 10 µM
[19] = second compound 1 µM, first compound 0.0316 µM
[20] = second compound 1 µM, first compound 0.1 µM
[21] = second compound 1 µM, first compound 0.316 µM
[22] = second compound 1 µM, first compound 1 µM
[23] = second compound 1 µM, first compound 3.16 µM
[24] = second compound 1 µM, first compound 10 µM
[25] = second compound 3.16 µM, first compound 0.0316 µM
[26] = second compound 3.16 µM, first compound 0.1 µM
[27] = second compound 3.16 µM, first compound 0.316 µM
[28] = second compound 3.16 µM, first compound 1 µM
[29] = second compound 3.16 µM, first compound 3.16 µM
[30] = second compound 3.16 µM, first compound 10 µM
[31] = second compound 10 µM, first compound 0.0316 µM
[32] = second compound 10 µM, first compound 0.1 µM
[33] = second compound 10 µM, first compound 0.316 µM
[34] = second compound 10 µM, first compound 1 µM
[35] = second compound 10 µM, first compound 3.16 µM
[36] = second compound 10 µM, first compound 10 µM
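Note: spheroids exposed to compounds for seven days before readout.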

In the case of `CCCS(=O)(=O)Nc1ccc(F)c(C(=O)c2c[nH]c3ncc(-c4ccc(Cl)cc4)cc23)c1F` + Cc1cnc(CNC(=O)c2c(=O)c3ccc(N4CCCN(C)CC4)nc3n3c2sc2ccccc23)cn1, the IC50 (second compound 0.0316 µM) is reported as 8410 nM, the IC50 (second compound 0.1 µM) is reported as > 10000 nM and the IC50 (second compound 0.316 µM) is reported as > 10000 nM. The IC50 (second compound 1 µM) was 6320 nM, the IC50 (second compound 3.16 µM) was 3270 nM and the IC50 (second compound 10 µM) was < 31.6 nM. For the same molecule, the viability, T/C [1] was 101%, the viability, T/C [2] was 93.9% and the viability, T/C [3] was 107%. The viability, T/C [4] was 96%, the viability, T/C [5] was 110% and the viability, T/C [6] was 40.9%. For the same molecule, the viability, T/C [7] was 105%, the viability, T/C [8] was 70.4% and the viability, T/C [9] was 78.9%. For the same molecule, the viability, T/C [10] was 82.4%, the viability, T/C [11] was 98.1% and the viability, T/C [12] was 52.8%. It also gave a viability, T/C [13] of 85%, a viability, T/C [14] of 64.3% and a viability, T/C [15] of 82.9%. For the same molecule, the viability, T/C [16] was 91.3%, the viability, T/C [17] was 101% and the viability, T/C [18] was 55.1%. It also gave a viability, T/C [19] of 64.3%, a viability, T/C [20] of 76.5% and a viability, T/C [21] of 74.1%. It also gave a viability, T/C [22] of 67.3%, a viability, T/C [23] of 96.4% and a viability, T/C [24] of 33%. It also gave a viability, T/C [25] of 43.9%, a viability, T/C [26] of 42.7% and a viability, T/C [27] of 55.2%. For the same molecule, the viability, T/C [28] was 63.4%, the viability, T/C [29] was 52.7% and the viability, T/C [30] was 0.43%. For the same molecule, the viability, T/C [31] was 32.7%, the viability, T/C [32] was 34.5% and the viability, T/C [33] was 38.7%. The viability, T/C [34] was 34.6%, the viability, T/C [35] was 22.8% and the viability, T/C [36] was 0.26%.
In the case of `CC(C)(O)C1CCC(Nc2ccc3ncc(-c4cccc(C(F)(F)F)c4)n3n2)CC1` (centres undefined) + Cc1cnc(CNC(=O)c2c(=O)c3ccc(N4CCCN(C)CC4)nc3n3c2sc2ccccc23)cn1, the IC50 (second compound 0.0316 µM) is reported as 1110 nM, the IC50 (second compound 0.1 µM) is reported as 848 nM and the IC50 (second compound 0.316 µM) is reported as 1070 nM. For the same molecule, the IC50 (second compound 1 µM) was 324 nM, the IC50 (second compound 3.16 µM) was < 31.6 nM and the IC50 (second compound 10 µM) was < 31.6 nM. The viability, T/C [1] was 82.1%, the viability, T/C [2] was 77.6% and the viability, T/C [3] was 73.5%. It also gave a viability, T/C [4] of 54.2%, a viability, T/C [5] of 8.38% and a viability, T/C [6] of 11.3%. The viability, T/C [7] was 86.5%, the viability, T/C [8] was 61.3% and the viability, T/C [9] was 78.2%. The viability, T/C [10] was 45.8%, the viability, T/C [11] was 12.6% and the viability, T/C [12] was 11.2%. For the same molecule, the viability, T/C [13] was 75.2%, the viability, T/C [14] was 52.5% and the viability, T/C [15] was 62.6%. For the same molecule, the viability, T/C [16] was 52.5%, the viability, T/C [17] was 8.9% and the viability, T/C [18] was 11.4%. For the same molecule, the viability, T/C [19] was 67.3%, the viability, T/C [20] was 59.8% and the viability, T/C [21] was 46.9%. For the same molecule, the viability, T/C [22] was 34.7%, the viability, T/C [23] was 1.37% and the viability, T/C [24] was 4.04%. The viability, T/C [25] was 44.2%, the viability, T/C [26] was 40.6% and the viability, T/C [27] was 50.6%. For the same molecule, the viability, T/C [28] was 17.7%, the viability, T/C [29] was 0.11% and the viability, T/C [30] was 0.15%. The viability, T/C [31] was 24.7%, the viability, T/C [32] was 21.9% and the viability, T/C [33] was 12.1%. For the same molecule, the viability, T/C [34] was 0.26%, the viability, T/C [35] was 0.2% and the viability, T/C [36] was 0.19%.
